# Legend:
# [1] = tested on: mouse lung endothelial cells (MLEC); assay: Murine endothelial cell apoptosis, annexin V flow cytometry; format: cell-based; conditions: 24 hours; any dose
# Protocol: The apoptotic effect of MMI-0100 ([…]; SEQ ID NO: 1) on mouse lung endothelial cells (MLEC) was measured at 24 hours after MMI-0100 ([…]; SEQ ID NO: 1) treatment. MLEC were removed from the tissue culture plate by trypsin, and re-suspended at a concentration of 1.0×10^6 cells/ml. Apoptotic cells were detected by AlexaFluor® 488 annexin V/Dead Cell Apoptosis Kit (Invitrogen) using flow cytometry sorting analysis.
# [2] = target: MKK3 (Homo sapiens, UniProt P46734); assay: MKK3 kinase activity (data not shown); format: biochemical; conditions: at concentration inhibiting greater than 95% of MK2 activity
# Excerpt: A commercial radiometric assay service was used to test the specificity and potency of MMI-0100 ([…]; SEQ ID NO: 1) by measuring its half maximal inhibitory concentrations (IC50). This quantitative assay measures how much MK2 inhibitor (MMI-0100; […] (SEQ ID NO: 1)) is needed to inhibit 50% of a given biological process or component of a process (i.e., an enzyme, cell, or cell receptor). Specifically, in these assays, a positively charged substrate is phosphorylated with a radiolabeled phosphate group from an ATP if the kinase is not inhibited by an inhibitor peptide. The positively charged substrate then is attracted to a negatively charged filter membrane, quantified with a scintillation counter, and compared to a 100% activity control. ATP concentrations within 15 μM of the apparent Km for ATP were chosen since an ATP concentration near the Km may allow for the kinases to have the same relative amount of phosphorylation activity. […]
# (§1) IC50 values for inhibitor peptides were determined using Millipore's IC50 Profiler Express service. […]
# In order to determine the level of specificity for inhibiting MK2, the effect of MMI-0100 ([…]; SEQ ID NO: 1) on other kinases within the MAPK family and within the p38MAPK pathway was evaluated at concentrations of MMI-0100 ([…]; SEQ ID NO: 1) that inhibit greater than 95% of MK2 activity in vitro. […]
# [3] = target: T1, MEK1 (Homo sapiens, UniProt Q02750); assay: MEK1 radiometric kinase assay; format: biochemical; conditions: peptide 100 μM
# T1 construct: purchased Millipore (KinaseProfiler service)
# Excerpt: A commercial radiometric assay service was used to test the specificity and potency of MMI-0100 ([…]; SEQ ID NO: 1) by measuring its half maximal inhibitory concentrations (IC50). This quantitative assay measures how much MK2 inhibitor (MMI-0100; […] (SEQ ID NO: 1)) is needed to inhibit 50% of a given biological process or component of a process (i.e., an enzyme, cell, or cell receptor). Specifically, in these assays, a positively charged substrate is phosphorylated with a radiolabeled phosphate group from an ATP if the kinase is not inhibited by an inhibitor peptide. The positively charged substrate then is attracted to a negatively charged filter membrane, quantified with a scintillation counter, and compared to a 100% activity control. ATP concentrations within 15 μM of the apparent Km for ATP were chosen since an ATP concentration near the Km may allow for the kinases to have the same relative amount of phosphorylation activity. The individual conditions for each radiometric assay are as follows.
# The reaction was initiated by adding the MgATP. After incubation for 40 minutes at room temperature, 5 μl of this incubation mix was used to initiate the MAPK2 radiometric assay whose reaction condition was the same as the condition for p38 MAPK assay described above.
# as §1
# [4] = tested on: human smooth muscle cell (SMC); assay: MTS cell proliferation assay, smooth muscle cells; format: cell-based; conditions: pre-treatment 20 ng/ml TNF-α
# Protocol: Primary human aortic endothelial cells (HAEC) and primary human aortic smooth muscle cells (HASMC) were obtained from Invitrogen; primary human coronary artery endothelial cells (HCAEC) were obtained from Lonza.
# All cultures were maintained in 25 cm^2 polystyrene tissue culture flasks in a 37° C., 5% CO2/95% air environment, with cell culture media refreshed every other day. All cells were seeded at a density of 20,000˜30,000 cells/cm^2, as required by the specific experiment, and allowed to grow to 80-90% confluence before being harvested/passaged. Only cells from early passages (numbers 2-8) were utilized in experiments.
# The CellTiter 96® AQueous Non-Radioactive Cell Proliferation Assay (Promega) was used to assess drug effects on cell proliferation according to the manufacturer's instructions. Briefly, HAECs and HASMCs from early passages were grown to 80-90% confluence in 25 cm^2 tissue culture flasks in a 37° C./5% CO2 incubator prior to harvest. 200 μl of each type of cell suspension (at 20,000 cells/cm^2) was seeded onto separate 96-well plates to yield an approximate 60% confluence per well. Cells were allowed to adhere to the plate surface overnight, followed by addition of 20 ng/ml of TNF-α to stimulate production of inflammatory agents. After a 4-6 hour incubation period, MMI-0100 peptide drug ([…]; SEQ ID NO: 1) was added and cells incubated for another 20-24 hours. Each well was then supplemented with 100 μl of fresh medium and 20 μl of CellTiter 96® AQueous One Solution Reagent and incubated for an additional 1.5-2 hours prior to measuring absorbance of each well at 490 nm with a SoftMax®-equipped plate reader.
# In order to determine the effect of pharmacological doses of MMI-0100 ([…]; SEQ ID NO: 1) on human endothelial cell (EC) and smooth muscle cell (SMC) proliferation, human EC and SMC cultures were treated with three concentrations (0.25 mM, 0.5 mM, and 1 mM) of MMI-0100 ([…] (SEQ ID NO: 1)) following pre-treatment with TNF-α.
# MKK3, sequence (P46734 whole entry, species assumed): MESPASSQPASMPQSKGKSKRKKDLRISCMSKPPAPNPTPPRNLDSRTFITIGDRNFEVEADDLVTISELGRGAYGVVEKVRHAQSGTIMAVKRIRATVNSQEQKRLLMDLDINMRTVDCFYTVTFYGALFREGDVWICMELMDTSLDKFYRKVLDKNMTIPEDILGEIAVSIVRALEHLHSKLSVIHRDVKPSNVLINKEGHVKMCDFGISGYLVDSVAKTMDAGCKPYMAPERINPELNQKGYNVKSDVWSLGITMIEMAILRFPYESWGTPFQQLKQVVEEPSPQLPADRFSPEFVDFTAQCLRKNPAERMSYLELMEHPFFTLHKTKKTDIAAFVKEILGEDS
sequence,measurement,setting,value
YARAAARQARAKALARQLGVAA [MMI-0100],EC apoptosis,[1],did not induce EC apoptosis at any dose
same,MKK3 activity,[2],no reduction
same,"Percent Activity, MEK1",[3],68%
same,SMC proliferation vs TNF-α alone control,[4]; 0.25 mM,slightly increased cell proliferation
same,increase in SMC proliferation vs TNF-α alone control,[4]; 0.5 mM,12%
same,increase in SMC proliferation vs TNF-α alone control,[4]; 1 mM,7%
